Source: patent US20230240958A1, “COSMETIC COMPOSITION WITH ENHANCED COLOR STABILITY FOR RETINOIC ACID PRECURSOR” (Conopco, Inc., d/b/a UNILEVER, priority 2020, published 2023)

Assay: Color stability by LabScan XE (CIELAB L*, a*, b*, ΔE) after storage
Format: physicochemical
Conditions: Examples 3 and 4

color stability / ΔE over time, comparison in words: greater color stability
Structure (SMILES): CCCCCCCCCCCCCC(=O)OC(C)C [isopropyl myristate]
